Laboratory results from PMC7824769, “Identification of Small Molecules Blocking the Pseudomonas aeruginosa Type III Secretion System Protein PcrV” (Biomolecules, 2021).
Read-outs that look alike come from different tables or passages of the source.

Test system: J774 cells infected with P. aeruginosa strain PAK
Experiment: cells
Type: cell-based, Pseudomonas aeruginosa
Conditions: for Anti-virulence efficacy in the infection assay (in words): 25-200 µM; for viability at 25 µM / viability at 50 µM / viability at 100 µM / viability at 200 µM: Pseudomonas aeruginosa; for viability at 25 µM: J774, compound 25 µM; for viability at 50 µM: J774, compound 50 µM; for viability at 100 µM: J774, compound 100 µM; for viability at 200 µM: J774, compound 200 µM
Method: The cell viability assay was performed essentially as described before. J774 cells were seeded in 96-well micro-titer plates (Nunc), 100 µL/well, to a final number of 50,000 cells/well in Dulbecco’s modified Eagle’s medium (DMEM) with glutamax (Merck) supplemented with 10% fetal calf serum (FCS) and 3 µg/mL gentamicin and incubated for 16-18 h. Overnight cultures of the P. aeruginosa strains PAK and PAKpcrV [10] were grown in Luria Broth (LB) on a rotary shaker at 220 rpm at 37 °C. Prior to infection, the bacteria were diluted 1:10 in DMEM + glutamax and incubated for 1 h at 37 °C (shaking). The J774 cells were washed once with PBS, then 30 µL of DMEM with glutamax and 10% FCS supplemented with the potential binders at concentrations of 50, 100, 200, and 400 µM were added to the wells in triplicates. The infection was initiated by adding 30 µL of the diluted bacterial solutions (where the OD600 had been diluted to 0.0008) to each well to initiate infection. This infection results in a final bacterial concentration of OD600 = 0.0004 and a multiplicities of infection (MOI) of approximately 8, with final concentrations of the compounds at 25, 50, 100, and 200 µM in 60 µL of DMEM + glutamax and 5% FCS. In the primary screening, the compounds were run at one concentration (100 µM) in duplicates. As an infection control, the wild-type strain PAK with 1% DMSO was added, and as a positive control, PAKpcrV with 1% DMSO was added into four wells each. After 3 h and 30 min, 10 µL of UptiBlue Viable Cell Counting Kit (Interchime, France) was added to all wells. The infection was followed under the light microscope and the fluorescence (excitation 535 nm and emission 595 nm) was measured at 4, 5, and 6 h in a microplate reader (Synergy™ H4, Biotek). The results were calculated as percentage of living cells compared to uninfected control, where the uninfected control was set to 100% living cells and the infected control was set to 0% living cells. As a control, compounds were added to uninfected cells in a parallel experiment and viability was calculated as above to screen for cell toxicity. A compound was considered toxic if the viability was <80% of the uninfected control after 6 h of incubation and if a visual change of cell morphology was observed by microscopy. Z’ was calculated for each plate to ensure good quality throughout the screening. Only results from plates with a Z’ > 0.4 were counted. Standard deviation was calculated with Gaussian approximation when appropriate and shown as error bars in Figure 3C and Figure 4A.
The T3SS is important for P. aeruginosa infection of eukaryotic cells, and a T3SS activator mutant or a mutant lacking the T3SS tip protein PcrV are not able to infect eukaryotic cells. The macrophage cell line, J774, was infected with the wild-type P. aeruginosa strain PAK, and the potential PcrV binders were added to the wells at a final concentration of 100 µM to screen for inhibition of infection. The T3SS-mediated cytotoxic effect on the eukaryotic cells was measured by using a viability staining method (Uptiblue, Interchim), and the results were measured after 4, 5, and 6 h of infection. The pcrV-mutant (PAKpcrV), which is not able to infect macrophages due to deletion of the PcrV protein, was used as a control.

[1] = uninfected control = 100%, infected control = 0%, read-out: Viability Assay (% of Uninfected Control) 25 µM
[2] = uninfected control = 100%, infected control = 0%, read-out: Viability Assay (% of Uninfected Control) 50 µM
[3] = uninfected control = 100%, infected control = 0%, read-out: Viability Assay (% of Uninfected Control) 100 µM
[4] = uninfected control = 100%, infected control = 0%

SMILES	Anti-virulence efficacy in the infection assay (in words)	viability at 25 µM [1] [%]	viability at 50 µM [2] [%]	viability at 100 µM [3] [%]	viability at 200 µM [4] [%]	viability at 25 µM (one representative experiment, read-out: Macrophage Viability, wt+25 µM (Figure 3C)) [%]	viability at 50 µM (one representative experiment, read-out: Macrophage Viability, wt+50 µM (Figure 3C)) [%]	viability at 100 µM (one representative experiment, read-out: Macrophage Viability, wt+100 µM (Figure 3C)) [%]
Cc1c(Br)ccc(OC[C@@H]2C[C@H]2C(=O)O)c1C (relative stereo) [Compound 32]	as efficacious as or better than H1	22	21	33	≤ 38	–	–	–
Cc1c(Br)ccc(OC[C@@H]2C[C@@H]2C(=O)O)c1C (relative stereo) [Compound 33]	as efficacious as or better than H1	24	24	38	≤ 38	–	–	–
Cc1c(Br)ccc(OCCCC(=O)O)c1C [Compound H1]	–	12	20	27	28	-4	19	42
